US11759462B2, “Spirocyclic compounds as tryptophan hydroxylase inhibitors” (priority 2013, dated 2023)
Like-named read-outs stand apart in the source and are kept apart here.

Experiments:
[1] = biological target: T1, Recombinant human TPH1 (MBP tagged) (Homo sapiens, UniProt P17752); assay: TPH1 in vitro inhibition assay (kinetic fluorescence); format: biochemical
T1 construct: cloning full length human TPH1 cDNA in to a bacterial pMAL-c5E expression vector; made in house; host or cells: E. coli BL21 (DE3)
T1 sequence (P17752 1-444): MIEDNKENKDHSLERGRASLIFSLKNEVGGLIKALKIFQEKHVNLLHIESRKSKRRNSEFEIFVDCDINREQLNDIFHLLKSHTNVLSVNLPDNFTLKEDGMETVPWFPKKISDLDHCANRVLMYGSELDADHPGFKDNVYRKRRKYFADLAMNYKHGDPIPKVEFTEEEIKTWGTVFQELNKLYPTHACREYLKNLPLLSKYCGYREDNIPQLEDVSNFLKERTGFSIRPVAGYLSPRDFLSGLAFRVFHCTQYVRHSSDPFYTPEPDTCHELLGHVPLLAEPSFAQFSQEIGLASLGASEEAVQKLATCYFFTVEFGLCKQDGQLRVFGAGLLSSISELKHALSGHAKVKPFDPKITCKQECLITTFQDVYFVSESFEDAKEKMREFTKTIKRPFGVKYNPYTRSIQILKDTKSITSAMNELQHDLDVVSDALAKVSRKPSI
Summary of the method: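 Final mix: 15 nM MBP-TPH1, 30 μM Trp, 36 μM 6-methyltetrahydropterin, 25 μM ferrous ammonium sulfate, 50 mM MES pH 7.1, 1% DMSO, room temperature.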

[2] = system: jejunal mucosal 5-HT in mice (C57 BL6); assay: Intestinal 5-HT depletion assay (Example B, single 150 mg/kg oral dose); format: in vivo, mouse; conditions: one day after oral administration of a single 150 mg/kg dose, P-value class (ANOVA)
Summary of the method: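 C57 BL6 mice received one 150 mg/kg oral gavage dose; jejunal mucosa was homogenized in acidic trichloroacetic acid buffer and 5-HT measured by HPLC. Levels normalized to BCA protein, expressed as mean percent reduction versus vehicle ± SEM; ANOVA significance.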

[3] = system: jejunal mucosal 5-HT in mice (C57 BL6); assay: Reduction of mucosal 5-HT concentrations (Example C, repeated oral dosing); format: in vivo, mouse; conditions: P-value class
Method: The efficacy of the TPH1 inhibitors of the invention was assessed for the ability to decrease intestinal serotonin concentration in mice. Mice (C57 BL6) were administered an oral dose of 10 or 50 mg/kg of the test article in the evening. […] Following an overnight fast, each animal was euthanized by exsanguination under isoflurane anesthesia. Jejunal intestinal mucosa was isolated and homogenized in […] of a buffer containing 0.3M trichloroacetic acid, 0.1M sodium acetate, 10 mM EDTA, 20 mM sodium bisulfate and 50 mM ascorbic acid. Following centrifugation the 5-HT levels in the supernatants were measured by HPLC. The remaining mucosal pellet was solubilized overnight at 37° C. in a 0.1% sodium dodecyl sulfate buffer in 0.1N NaOH followed by determination of protein concentrations using a BCA protein assay (Pierce, Rockford, Ill.). 5-HT levels were normalized to protein and data were expressed as mean percent reduction of mucosal 5-HT levels relative to vehicle control±SEM (percent 5-HT reduction). All animal studies were carried out with protocols approved by the Institutional Animal Care and Use Committee. P-values, indicating statistical significance of the data (ANOVA) are provided in the table: * refers to P<0.05,** refers to P<0.01, *** refers to P<0.005, and **** refers to P<0.0005.

TPH = conditions: background statement; cited from earlier work
[4] = system: central 5-HT production / CNS functions; conditions: cited from earlier work
[5] = carcinoid tumor patients; cited from earlier work
[6] = read-out: TPH1 Range (TPH1 inhibition IC50)
[7] = after three oral doses (first 10 or 50 mg/kg, then two doses of 50 mg/kg) (title)

| Structure (SMILES) | Efficacy (statistical significance of reduction of mucosal 5-HT concentrations relative to vehicle) [2] | Efficacy (statistical significance of reduction of mucosal 5-HT concentrations relative to vehicle) [3, 7] | further results |
| --- | --- | --- | --- |
| CCCCc1ccc([C@@H](Oc2cc(N3CCC4(CC3)CN[C@H](C(=O)O)C4)nc(N)n2)C(F)(F)F)c(-n2ccc(C)n2)c1 [Example 12c, (S)-8-(2-amino-6-((R)-1-(4-butyl-2-(3-methyl-1H-pyrazol-1-yl)phenyl)-2,2,2-trifluoroethoxy)pyrimidin-4-yl)-2,8-diazaspiro[4.5]decane-3-carboxylic acid] | *** (*** refers to P<0.005) | *** (*** refers to P<0.005) | IC50 [1, 6]: < 50 nM |
| COc1cc(-c2ccc([C@@H](Oc3cc(N4CCC5(CC4)CN[C@H](C(=O)O)C5)nc(N)n3)C(F)(F)F)c(-n3ccc(C)n3)c2)ccn1 [Example 1n, (S)-8-(2-amino-6-((R)-2,2,2-trifluoro-1-(4-(2-methoxypyridin-4-yl)-2-(3-methyl-1H-pyrazol-1-yl)phenyl)ethoxy)pyrimidin-4-yl)-2,8-diazaspiro[4.5]decane-3-carboxylic acid] | ** (** refers to P<0.01) | *** (*** refers to P<0.005) | IC50 [1, 6]: < 50 nM |
| CCCc1ccc(-n2ccc(C)n2)c([C@@H](Oc2cc(N3CCC4(CC3)CN[C@H](C(=O)OCC)C4)nc(N)n2)C(F)(F)F)c1 [Example 63bo, (S)-ethyl 8-(2-amino-6-((R)-2,2,2-trifluoro-1-(2-(3-methyl-1H-pyrazol-1-yl)-5-propylphenyl)ethoxy)pyrimidin-4-yl)-2,8-diazaspiro[4.5]decane-3-carboxylate] | **** (and refers to P<0.0005) | *** (*** refers to P<0.005) |  |
| Nc1nc(O[C@H](c2ccc(-c3ccc4ncccc4c3)cc2)C(F)(F)F)cc(N2CCC3(CC2)CN[C@H](C(=O)O)C3)n1 [Example 55bg, (S)-8-(2-amino-6-((R)-2,2,2-trifluoro-1-(4-(quinolin-6-yl)phenyl)ethoxy)pyrimidin-4-yl)-2,8-diazaspiro[4.5]decane-3-carboxylic acid] | *** (*** refers to P<0.005) | *** (*** refers to P<0.005) | IC50 [1, 6]: < 50 nM |
| C#Cc1ccc(C[C@H](N)C(=O)O)cc1 [p-Ethynyl phenylalanine] |  |  | TPH inhibition (in words) (TPH): more selective and more potent TPH inhibitor than pCPA; effect on central 5-HT production ([4]; in vivo): affects central 5-HT production |
| N[C@@H](Cc1ccc(Cl)cc1)C(=O)O (racemic) [pCPA, p-chlorophenylalanine] |  |  | TPH inhibition (in words) (TPH): very weak and unselective irreversible inhibitor of TPH; efficacy against chemotherapy-induced emesis and diarrhea [5]: proven effective in treating chemotherapy-induced emesis, as well as diarrhea; CNS side effects ([4]; patients and animals): linked to the onset of depression and other alterations of CNS functions |
| CCCc1ccc([C@@H](Oc2cc(N3CCC4(CC3)CN[C@H](C(=O)OCC)C4)nc(N)n2)C(F)(F)F)c(-n2ccc(C)n2)c1 [Example 63bf, (S)-ethyl 8-(2-amino-6-((R)-2,2,2-trifluoro-1-(2-(3-methyl-1H-pyrazol-1-yl)-4-propylphenyl)ethoxy)pyrimidin-4-yl)-2,8-diazaspiro[4.5]decane-3-carboxylate] | **** (and refers to P<0.0005) | *** (*** refers to P<0.005) |  |
| Cc1ccn(-c2cc(-c3ccc(C)c(C)c3)ccc2[C@@H](Oc2cc(N3CCC4(CC3)CN[C@H](C(=O)O)C4)nc(N)n2)C(F)(F)F)n1 [Example 1m, (S)-8-(2-amino-6-((R)-1-(3′,4′-dimethyl-3-(3-methyl-1H-pyrazol-1-yl)-[1,1′-biphenyl]-4-yl)-2,2,2-trifluoroethoxy)pyrimidin-4-yl)-2,8-diazaspiro[4.5]decane-3-carboxylic acid] | *** (*** refers to P<0.005) |  | IC50 ([1]; TPH1 Range (TPH1 inhibition IC50)): < 50 nM; Efficacy (statistical significance of reduction of mucosal 5-HT concentrations relative to vehicle) ([3]; (title)): * (* refers to P<0.05) |
| CCOC(=O)[C@@H]1CC2(CCN(c3cc(O[C@H](c4cc(CC)ccc4-n4ccc(C)n4)C(F)(F)F)nc(N)n3)CC2)CN1 [Example 63bp, (S)-ethyl 8-(2-amino-6-((R)-1-(5-ethyl-2-(3-methyl-1H-pyrazol-1-yl)phenyl)-2,2,2-trifluoroethoxy)pyrimidin-4-yl)-2,8-diazaspiro[4.5]decane-3-carboxylate] | **** (and refers to P<0.0005) | *** (*** refers to P<0.005) |  |
| Cc1ccn(-c2cc(-c3ccc(OC(C)C)cc3)ccc2[C@@H](Oc2cc(N3CCC4(CC3)CN[C@H](C(=O)O)C4)nc(N)n2)C(F)(F)F)n1 [Example 1l, (S)-8-(2-amino-6-((R)-2,2,2-trifluoro-1-(4′-isopropoxy-3-(3-methyl-1H-pyrazol-1-yl)-[1,1′-biphenyl]-4-yl)ethoxy)pyrimidin-4-yl)-2,8-diazaspiro[4.5]decane-3-carboxylic acid] | **** (and refers to P<0.0005) | *** (*** refers to P<0.005) | IC50 [1, 6]: < 50 nM |
| CCOC(=O)[C@@H]1CC2(CCN(c3cc(O[C@H](c4ccc(-c5ccc(C)c(C)c5)cc4-n4ccc(C)n4)C(F)(F)F)nc(N)n3)CC2)CN1 [Example 63bd, (S)-ethyl 8-(2-amino-6-((R)-1-(3′,4′-dimethyl-3-(3-methyl-1H-pyrazol-1-yl)-[1,1′-biphenyl]-4-yl)-2,2,2-trifluoroethoxy)pyrimidin-4-yl)-2,8-diazaspiro[4.5]decane-3-carboxylate] | *** (*** refers to P<0.005) | *** (*** refers to P<0.005) |  |
| CCOC(=O)c1ccc(-c2ccc(-n3ccc(C)n3)c([C@@H](Oc3cc(N4CCC5(CC4)CN[C@H](C(=O)OCC)C5)nc(N)n3)C(F)(F)F)c2)cc1 [Example 63dc, (S)-ethyl 8-(2-amino-6-((R)-1-(4′-(ethoxycarbonyl)-4-(3-methyl-1H-pyrazol-1-yl)-[1,1′-biphenyl]-3-yl)-2,2,2-trifluoroethoxy)pyrimidin-4-yl)-2,8-diazaspiro[4.5]decane-3-carboxylate] | *** (*** refers to P<0.005) | *** (*** refers to P<0.005) |  |
| CCOC(=O)[C@@H]1CC2(CCN(c3cc(O[C@H](c4cc(-c5ccc(C)c(C)c5)ccc4-n4ccc(C)n4)C(F)(F)F)nc(N)n3)CC2)CN1 [Example 63bn, (S)-ethyl 8-(2-amino-6-((R)-1-(3′,4′-dimethyl-4-(3-methyl-1H-pyrazol-1-yl)-[1,1′-biphenyl]-3-yl)-2,2,2-trifluoroethoxy)pyrimidin-4-yl)-2,8-diazaspiro[4.5]decane-3-carboxylate] | **** (and refers to P<0.0005) | **** (**** refers to P<0.0005) |  |
| CCCCc1ccc([C@@H](Oc2cc(N3CCC4(CC3)CN[C@H](C(=O)OCC)C4)nc(N)n2)C(F)(F)F)c(-n2ccc(C)n2)c1 [Example 63bg, (S)-ethyl 8-(2-amino-6-((R)-1-(4-butyl-2-(3-methyl-1H-pyrazol-1-yl)phenyl)-2,2,2-trifluoroethoxy)pyrimidin-4-yl)-2,8-diazaspiro[4.5]decane-3-carboxylate] | **** (and refers to P<0.0005) | *** (*** refers to P<0.005) |  |
